In US20110046223A1, “TREATMENT OF NEUROFIBROMATOSIS” (RAMOT AT TEL-AVIV UNIVERSITY LTD., priority 2006, published 2011):

System: p120 RasGAP
Test: p120 RasGAP amounts, immunoblot
Type: cell-based, human
Conditions: 75 μM FTS, 48 hours, NF-1 and non-NF-1 cells
Method: Unless otherwise indicated, cells were lysed 48 hours after being treated with lysis buffer, as described in Haklai, et al., supra. […] Protein bands were visualized by ECL and quantified by densitometry with Image Master VDS-CL (Amersham) using TINA 2.0 software (Ray Tests). To obtain reliable comparisons between replicated experiments for statistical analysis, a standardization procedure was used, in which the density of each given protein band as recorded with its specific Ab, was normalized. […] The standard average density was defined as 1.0, and each of the individually determined bands was related to this value. […] Actin cytoskeletal elements were labeled with rhodamine-phalloidin, and digital fluorescence images were collected on a Zeiss LSM 510 confocal microscope fitted with fluorescein and rhodamine filters, as described in Gana-Weisz, M., et al., supra. […]

Structure (SMILES): CC(C)=CCC/C(C)=C/CC/C(C)=C/CSc1ccccc1C(=O)O [FTS, S-farnesylthiosalicylic acid]
- amounts of p120 RasGAP: no effect
